Measured values reported in ChEMBL document CHEMBL2074419, “Induction of multidrug resistance protein 3 in rat liver is associated with altered vectorial excretion of acetaminophen metabolites” (Drug Metab Dispos, 2003).

What was measured:
Assay type in all cases: functional, organism-based, Sprague-Dawley
[1] = target: T1, ATP-binding cassette sub-family C member 2 (Rattus norvegicus, UniProt Q63120); experiment: (§1) TP_TRANSPORTER: quantitative PCR in vivo, liver of SD rat
[2] = target: T2, ATP-binding cassette subfamily C member 4 (Rattus norvegicus, UniProt F1M3J4); experiment: as §1
T2 sequence (F1M3J4 whole entry): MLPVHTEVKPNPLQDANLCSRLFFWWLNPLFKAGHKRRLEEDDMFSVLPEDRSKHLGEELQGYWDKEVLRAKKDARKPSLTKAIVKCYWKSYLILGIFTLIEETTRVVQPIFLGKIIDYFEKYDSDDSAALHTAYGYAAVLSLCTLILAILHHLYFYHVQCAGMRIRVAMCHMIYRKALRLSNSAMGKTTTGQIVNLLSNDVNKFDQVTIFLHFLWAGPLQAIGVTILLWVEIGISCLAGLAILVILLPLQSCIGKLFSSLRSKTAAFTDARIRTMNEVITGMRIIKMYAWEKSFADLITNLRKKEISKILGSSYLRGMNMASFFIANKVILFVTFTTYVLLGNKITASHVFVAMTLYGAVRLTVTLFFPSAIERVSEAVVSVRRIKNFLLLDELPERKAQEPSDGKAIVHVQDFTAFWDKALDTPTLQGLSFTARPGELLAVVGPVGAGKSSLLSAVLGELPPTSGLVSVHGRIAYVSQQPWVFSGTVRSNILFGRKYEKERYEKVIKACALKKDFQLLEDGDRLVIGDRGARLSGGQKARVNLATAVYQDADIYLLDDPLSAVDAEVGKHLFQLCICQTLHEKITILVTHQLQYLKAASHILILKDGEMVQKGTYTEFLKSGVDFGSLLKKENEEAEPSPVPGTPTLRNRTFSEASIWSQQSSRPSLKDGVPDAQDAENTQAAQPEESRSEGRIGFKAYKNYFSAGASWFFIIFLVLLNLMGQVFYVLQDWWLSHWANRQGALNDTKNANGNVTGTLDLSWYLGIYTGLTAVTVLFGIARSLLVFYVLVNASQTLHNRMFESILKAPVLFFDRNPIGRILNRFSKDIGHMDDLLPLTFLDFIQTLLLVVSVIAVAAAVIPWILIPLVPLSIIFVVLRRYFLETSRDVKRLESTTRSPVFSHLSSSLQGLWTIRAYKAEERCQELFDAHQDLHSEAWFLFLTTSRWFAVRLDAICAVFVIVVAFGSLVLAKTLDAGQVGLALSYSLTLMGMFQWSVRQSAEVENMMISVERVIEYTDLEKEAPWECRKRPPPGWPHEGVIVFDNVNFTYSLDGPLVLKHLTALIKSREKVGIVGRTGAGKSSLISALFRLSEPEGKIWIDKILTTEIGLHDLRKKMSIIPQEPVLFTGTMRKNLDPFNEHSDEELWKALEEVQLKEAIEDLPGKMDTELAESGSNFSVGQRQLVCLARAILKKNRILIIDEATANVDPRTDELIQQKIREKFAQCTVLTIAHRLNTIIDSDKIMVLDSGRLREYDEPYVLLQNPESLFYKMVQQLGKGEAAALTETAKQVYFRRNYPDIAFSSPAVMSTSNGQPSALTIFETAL

[3] = target: T3, ATP-binding cassette sub-family C member 3 (Rattus norvegicus, UniProt O88563); experiment: as §1
[4] = target: T1, ATP-binding cassette sub-family C member 2; experiment: (§2) TP_TRANSPORTER: Western in vivo, liver of SD rat
[5] = target: T3, ATP-binding cassette sub-family C member 3; experiment: as §2
[6] = target: T1, ATP-binding cassette sub-family C member 2; experiment: (§3) TP_TRANSPORTER: quantitative PCR in vivo, kidney of SD rat
[7] = target: T2, ATP-binding cassette subfamily C member 4; experiment: as §3
[8] = target: T3, ATP-binding cassette sub-family C member 3; experiment: as §3

Measured: Activity

T3 sequence (O88563 whole entry): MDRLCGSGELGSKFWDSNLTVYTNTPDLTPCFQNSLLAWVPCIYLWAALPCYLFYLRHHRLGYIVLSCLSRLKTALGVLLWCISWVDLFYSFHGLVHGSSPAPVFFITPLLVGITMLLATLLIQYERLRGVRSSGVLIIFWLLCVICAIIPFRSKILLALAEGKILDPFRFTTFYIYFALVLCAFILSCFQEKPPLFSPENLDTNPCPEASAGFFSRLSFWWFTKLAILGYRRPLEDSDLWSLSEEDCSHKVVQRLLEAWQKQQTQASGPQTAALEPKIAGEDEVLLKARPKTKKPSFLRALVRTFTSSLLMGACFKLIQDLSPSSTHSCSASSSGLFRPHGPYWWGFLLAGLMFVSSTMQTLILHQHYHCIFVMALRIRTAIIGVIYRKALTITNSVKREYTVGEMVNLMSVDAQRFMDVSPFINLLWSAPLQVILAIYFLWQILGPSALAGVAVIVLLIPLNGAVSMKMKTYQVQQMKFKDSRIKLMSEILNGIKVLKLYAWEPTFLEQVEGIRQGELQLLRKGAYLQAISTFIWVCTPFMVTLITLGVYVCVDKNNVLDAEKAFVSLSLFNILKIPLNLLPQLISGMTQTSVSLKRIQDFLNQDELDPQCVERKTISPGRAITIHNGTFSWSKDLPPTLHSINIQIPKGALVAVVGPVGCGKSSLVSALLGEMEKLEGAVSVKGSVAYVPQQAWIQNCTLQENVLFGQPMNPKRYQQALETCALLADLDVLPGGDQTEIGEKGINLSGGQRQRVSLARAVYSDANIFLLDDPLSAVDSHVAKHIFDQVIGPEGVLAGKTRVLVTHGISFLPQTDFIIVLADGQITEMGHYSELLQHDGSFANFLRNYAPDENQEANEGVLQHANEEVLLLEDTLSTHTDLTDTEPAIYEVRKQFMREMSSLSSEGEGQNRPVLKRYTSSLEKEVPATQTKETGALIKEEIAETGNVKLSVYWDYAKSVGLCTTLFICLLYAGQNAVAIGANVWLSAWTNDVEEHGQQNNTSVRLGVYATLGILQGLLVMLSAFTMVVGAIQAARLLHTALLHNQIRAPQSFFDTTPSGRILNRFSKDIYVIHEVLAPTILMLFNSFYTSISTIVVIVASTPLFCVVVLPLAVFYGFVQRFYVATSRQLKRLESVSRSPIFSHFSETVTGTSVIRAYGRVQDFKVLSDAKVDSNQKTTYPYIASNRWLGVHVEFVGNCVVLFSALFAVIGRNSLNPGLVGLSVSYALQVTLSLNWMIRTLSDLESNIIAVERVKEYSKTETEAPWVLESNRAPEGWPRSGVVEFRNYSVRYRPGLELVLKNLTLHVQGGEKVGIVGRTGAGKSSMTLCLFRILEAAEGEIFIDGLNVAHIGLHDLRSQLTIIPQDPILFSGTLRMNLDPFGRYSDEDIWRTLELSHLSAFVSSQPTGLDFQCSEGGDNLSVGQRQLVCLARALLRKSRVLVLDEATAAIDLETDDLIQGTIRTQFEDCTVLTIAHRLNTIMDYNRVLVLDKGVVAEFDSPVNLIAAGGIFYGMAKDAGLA
T1 sequence (Q63120 whole entry): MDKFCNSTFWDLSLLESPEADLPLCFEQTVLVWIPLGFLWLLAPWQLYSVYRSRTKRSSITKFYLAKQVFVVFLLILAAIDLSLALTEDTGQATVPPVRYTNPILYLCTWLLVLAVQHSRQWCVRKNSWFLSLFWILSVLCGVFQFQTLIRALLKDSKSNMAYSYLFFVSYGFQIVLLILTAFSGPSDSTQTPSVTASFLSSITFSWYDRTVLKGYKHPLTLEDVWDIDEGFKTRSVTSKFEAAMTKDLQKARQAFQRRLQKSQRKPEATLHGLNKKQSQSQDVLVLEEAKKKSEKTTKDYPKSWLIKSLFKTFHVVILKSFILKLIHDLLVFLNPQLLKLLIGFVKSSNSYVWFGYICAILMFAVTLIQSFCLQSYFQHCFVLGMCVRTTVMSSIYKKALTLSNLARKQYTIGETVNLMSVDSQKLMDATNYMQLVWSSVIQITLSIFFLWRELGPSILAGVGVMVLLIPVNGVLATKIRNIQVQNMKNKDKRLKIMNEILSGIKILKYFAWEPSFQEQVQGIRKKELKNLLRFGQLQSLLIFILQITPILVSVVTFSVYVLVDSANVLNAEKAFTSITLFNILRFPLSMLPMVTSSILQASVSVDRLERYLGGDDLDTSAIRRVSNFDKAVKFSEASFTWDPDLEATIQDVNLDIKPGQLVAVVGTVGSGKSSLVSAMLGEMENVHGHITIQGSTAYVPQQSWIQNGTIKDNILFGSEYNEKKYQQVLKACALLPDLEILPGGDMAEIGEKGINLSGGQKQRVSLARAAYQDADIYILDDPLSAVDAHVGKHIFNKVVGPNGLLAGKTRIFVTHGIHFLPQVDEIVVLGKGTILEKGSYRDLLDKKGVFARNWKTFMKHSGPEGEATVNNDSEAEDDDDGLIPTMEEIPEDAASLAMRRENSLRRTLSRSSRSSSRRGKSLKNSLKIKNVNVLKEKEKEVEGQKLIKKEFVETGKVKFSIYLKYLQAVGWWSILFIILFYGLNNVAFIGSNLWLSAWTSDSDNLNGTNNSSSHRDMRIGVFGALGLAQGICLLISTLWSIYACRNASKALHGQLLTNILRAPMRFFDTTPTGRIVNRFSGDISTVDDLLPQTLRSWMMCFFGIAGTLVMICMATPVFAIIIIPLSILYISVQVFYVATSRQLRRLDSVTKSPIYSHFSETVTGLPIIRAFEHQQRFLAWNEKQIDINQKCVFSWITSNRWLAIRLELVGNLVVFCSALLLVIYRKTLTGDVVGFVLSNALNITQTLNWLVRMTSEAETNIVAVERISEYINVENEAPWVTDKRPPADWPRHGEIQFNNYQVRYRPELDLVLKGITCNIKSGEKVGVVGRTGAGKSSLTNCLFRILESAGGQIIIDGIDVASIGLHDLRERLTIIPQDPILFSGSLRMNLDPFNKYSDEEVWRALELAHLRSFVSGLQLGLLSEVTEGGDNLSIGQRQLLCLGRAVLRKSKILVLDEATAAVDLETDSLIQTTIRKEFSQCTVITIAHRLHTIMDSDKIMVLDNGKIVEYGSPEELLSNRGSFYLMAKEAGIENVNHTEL

c1ccc([C@H]2O[C@@H]2c2ccccc2)cc1 (relative stereo)
inducer []: [1] | [2] | [3] | [4] | [5]

C=CCSCC=C [DIALLYL SULFIDE]
not listed: [1]
inducer []: all other assays above

Cc1c(-c2cnccn2)ssc1=S [OLTIPRAZ]
inducer []: [1] | [3] | [4] | [5] | [8]

CCC1(c2ccccc2)C(=O)NC(=O)NC1=O [PHENOBARBITAL]
inducer []: [3] | [5]
